The target of this test is T1, MerTK (Homo sapiens, UniProt Q12866).
T1 construct: Seed HUVECs (10K cells/well) in EBM-2 complete media; host or cells: HUVEC (primary human umbilical vein endothelial cells)
T1 sequence (Q12866 21-999): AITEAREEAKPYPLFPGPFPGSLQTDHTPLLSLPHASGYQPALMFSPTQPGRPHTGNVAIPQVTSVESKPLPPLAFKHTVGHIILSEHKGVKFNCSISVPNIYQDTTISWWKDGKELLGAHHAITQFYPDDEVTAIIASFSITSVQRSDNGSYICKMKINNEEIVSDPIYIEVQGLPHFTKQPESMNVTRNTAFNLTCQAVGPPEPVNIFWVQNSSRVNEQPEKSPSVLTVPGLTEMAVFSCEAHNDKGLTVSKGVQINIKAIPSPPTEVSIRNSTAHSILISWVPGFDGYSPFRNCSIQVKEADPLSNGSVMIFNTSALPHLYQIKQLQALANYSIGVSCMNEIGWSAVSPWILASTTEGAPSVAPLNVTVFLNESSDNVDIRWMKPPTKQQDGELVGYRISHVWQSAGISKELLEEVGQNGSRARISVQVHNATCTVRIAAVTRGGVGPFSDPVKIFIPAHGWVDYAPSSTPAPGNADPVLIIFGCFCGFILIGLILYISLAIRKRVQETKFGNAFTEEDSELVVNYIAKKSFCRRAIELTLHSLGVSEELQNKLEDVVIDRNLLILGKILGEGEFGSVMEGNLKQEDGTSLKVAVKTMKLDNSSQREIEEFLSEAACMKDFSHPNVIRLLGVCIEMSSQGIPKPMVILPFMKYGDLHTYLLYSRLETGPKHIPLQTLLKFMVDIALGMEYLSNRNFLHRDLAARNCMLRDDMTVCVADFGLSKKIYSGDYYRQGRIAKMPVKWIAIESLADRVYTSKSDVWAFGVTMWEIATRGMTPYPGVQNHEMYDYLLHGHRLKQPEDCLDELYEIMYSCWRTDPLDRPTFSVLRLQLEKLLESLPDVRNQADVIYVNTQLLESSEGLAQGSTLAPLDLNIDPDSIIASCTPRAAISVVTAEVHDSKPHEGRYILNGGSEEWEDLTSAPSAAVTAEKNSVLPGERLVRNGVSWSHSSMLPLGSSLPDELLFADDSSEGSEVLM
The experiment in a line: PAKT HTRF-HUVEC assay (pAkt Ser473 HTRF after anti-human MerTK-XL stimulation). The following applies: HUVEC cells, 1 hour compound, stimulated with anti-human MerTK-XL 1 ug/mL for 10 minutes, read-out: inhibition of MerTK. It counts as cell-based. The procedure: Example 4: PAKT HTRF-HUVEC Assay Phospho Akt (Ser473) Assay kit-10,000 tests (Cisbio US, 64[…]) HUVEC cells (Lonza, CC-2519) Anti-human MerTK antibody (Clone 125518) (R&D Systems, MAB8912) Method Seed HUVECs (10K cells/well) in EBM-2 complete media (EBM-2 basal medium plus EGM-2 BulletKit supplements) overnight at 37° C., 5% CO2 in Costar 96-well white clear-bottom plates. Remove culture media and starve cells for 3-4 hours in 50 μL/well EBM-2 basal medium. Perform serial dilution of compounds in DMSO from 2.5 mM in 4-fold dilutions, and then dilute 1:125 in EBM-2 basal media. Mix 50 μL/well 2x compounds with 50 μL/well HUVECs in duplicate in Costar 96-well white clear-bottom plates. Incubate plates for 1 hour at 37° C., 5% CO2. Cross-link anti-human MerTK antibody to Biotin-SP-conjugated anti-mouse IgG antibody (1:1) to give final concentrations of 5 ug/mL of anti-human MerTK-XL. Stimulate HUVECs with 25 μL/well 5x anti-human MerTK-XL to give final concentrations of 1 ug/mL for 10 minutes at 37° C., 5% CO2. Completely remove media and lyse HUVECs with 40 uL/WELL per well of Cisbio HTRF 1× lysis buffer. Performed pAkt(Ser473) HTRF assay in ProxiPlate-384 Plus, white 384-shallow well microplate according to the vendor protocol and read plates with a SpectralMax Paradigm plate reader. Enter the HTRF values into Athena (Rigel) for curve fitting, EC50 calculation, and database storage.

Experimental findings from US11110082B2, “Tyrosine kinase inhibitors” (Rigel Pharmaceuticals, Inc., priority 2016, dated 2021) are described below.

Regarding `O=c1c2cc(CN3CCOCC3)ccc2c2cnc(NCC3CCC3)nc2n1[C@H]1CC[C@H](O)CC1` [Compound 21, trans-3-((Cyclobutylmethyl)amino)-5-(4-hydroxycyclohexyl)-8-(morpholinomethyl)pyrimido [4,5-c]isoquinolin-6(5H)-one], the EC50 is 30.7 nM. As to `CCCCNc1ncc2c3ccccc3c(=O)n(C3CCC(C)(O)CC3)c2n1` (stereo not drawn) [Compound 113, trans-3-(Butylamino)-5-(4-hydroxy-4-methylcyclohexyl)pyrimido [4,5-c]isoquinolin-6(5H)-one], the EC50 was found to be 44.9 nM. The value for `CC1(O)CCC(n2c(=O)c3ccccc3c3cnc(NCC4CC4)nc32)CC1` (stereo not drawn) [Compound 121, trans-3-((Cyclopropylmethyl)amino)-5-(4-hydroxy-4-methylcyclohexyl)pyrimido[4,5-c]isoquinolin-6(5H)-one] was 620 nM; that for `CCC(F)(F)CNc1ncc2c3ccccc3c(=O)n([C@H]3CC[C@H](O)CC3)c2n1` [Compound 119, trans-3-((2,2-difluorobutyl)amino)-5-(4-hydroxycyclohexyl)pyrimido [4,5-c]isoquinolin-6(5H)-one] was 15800 nM. With `CCCCNc1ncc2c3ccc(CN4CCNCC4)cc3c(=O)n([C@H]3CC[C@H](O)CC3)c2n1` [Compound 154] the figure was 66 nM; with `CCCCNc1ncc2c3ccc(CN4CCN(C)CC4)cc3c(=O)n([C@H]3CC[C@H](C(=O)NCC(F)(F)F)CC3)c2n1` [Compound 139, trans-4-(3-(Butylamino)-8-((4-methylpiperazin-1-yl)methyl)-6-oxopyrimido[4,5-c]isoquinolin-5(6H)-yl)-N-(2,2,2-trifluoroethyl)cyclohexane-1-carboxamide], 134 nM. With `CCCCNc1ncc2c3ccc(N4C[C@@H](C)N(C)C[C@@H]4C)cc3c(=O)n([C@H]3CC[C@H](O)CC3)c2n1` [Compound 78, trans-3-(Butylamino)-5-(4-hydroxycyclohexyl)-8-((2S,5R)-2,4,5-trimethylpiperazin-1-yl)pyrimido[4,5-c]isoquinolin-6(5H)-one] the figure was 9 nM; with `CCC1(CNc2ncc3c4ccccc4c(=O)n([C@H]4CC[C@H](O)CC4)c3n2)CCC1` [Compound 116, trans-3-(((1-Ethylcyclobutyl)methyl)amino)-5-(4-hydroxycyclohexyl)pyrimido [4,5-c]isoquinolin-6(5H)-one], 4620 nM; with `O=c1c2cc(CN3CCN(CC(F)(F)F)CC3)ccc2c2cnc(NCC3CC3)nc2n1[C@H]1CC[C@H](O)CC1` [Compound 152], 50.7 nM. For the compound `CCCCNc1ncc2c3ccc(CN4CCN(C)CC4)cc3c(=O)n(C3CCC(C)(O)CC3)c2n1` (stereo not drawn) [Compound 15, trans-3-(Butylamino)-5-(4-hydroxy-4-methylcyclohexyl)-8-((4-methylpiperazin-1-yl)methyl)pyrimido[4,5-c]isoquinolin-6(5H)-one], the EC50 was determined as 5.9 nM.

In the case of `CCCCNc1ncc2c3ccc(CN4CCN(C)CC4)cc3c(=O)n([C@H]3CC[C@@H](O)CC3)c2n1` [Compound 5, cis-3-(Butylamino)-5-(4-hydroxycyclohexyl)-8-((4-methylpiperazin-1-yl)methyl)pyrimido[4,5-c]isoquinolin-6(5H)-one], the EC50 stood at 98 nM. With `O=c1c2cc(CN3CCN(c4ccncc4)CC3)ccc2c2cnc(NC3CCC3)nc2n1[C@H]1CC[C@H](O)CC1` [Compound 225, trans-3-(Cyclobutylamino)-5-(4-hydroxycyclohexyl)-8-((4-(pyridin-4-yl)piperazin-1-yl)methyl)pyrimido[4,5-c]isoquinolin-6(5H)-one], the EC50 was 21 nM. With `CN1CCN(c2ccc3c(c2)c(=O)n([C@H]2CC[C@](C)(O)CC2)c2nc(NCCC4CC4)ncc32)CC1` [Compound 98, trans-3-((2-Cyclopropylethyl)amino)-5-(4-hydroxy-4-methylcyclohexyl)-8-(4-methylpiperazin-1-yl)pyrimido[4,5-c]isoquinolin-6(5H)-one] the figure was 35.7 nM; with `CCCCNc1ncc2c3ccc(CN4CCN(C)CC4)cc3c(=O)n(C3CC4(CC(O)C4)C3)c2n1` (stereo not shown) [Compound 14, 3-(Butylamino)-5-(6-hydroxyspiro[3.3]heptan-2-yl)-8-((4-methylpiperazin-1-yl)methyl)pyrimido[4,5-c]isoquinolin-6(5H)-one], 56.4 nM; with `CCCCNc1ncc2c3ccc(CN4CCN(C)CC4)cc3c(=O)n([C@H]3CC[C@H](NCC(N)=O)C3)c2n1` [Compound 237, 2-(((1S,3S)-3-(3-(butylamino)-8-((4-methylpiperazin-1-yl)methyl)-6-oxopyrimido[4,5-c]isoquinolin-5(6H)-yl)cyclopentyl)amino)acetamide], 220 nM. With `CCC[C@H](C)Nc1ncc2c3ccc(CN4CCC5(CC4)COC5)cc3c(=O)n([C@H]3CC[C@H](O)CC3)c2n1` [Compound 214, trans-8-((2-oxa-7-azaspiro[3.5]nonan-7-yl)methyl)-5-(4-hydroxycyclohexyl)-3-(((5)-pentan-2-yl)amino)pyrimido[4,5-c]isoquinolin-6(5H)-one] the figure was 10.5 nM; with `O=c1c2cc(CN3CCC(c4nnn[nH]4)CC3)ccc2c2cnc(NCC3CC3)nc2n1C1CCC(O)CC1` (stereo not shown) [Compound 143, 8-((4-(1H-tetrazol-5-yl)piperidin-1-yl)methyl)-3-((cyclopropylmethyl)amino)-5-((1s,4s)-4-hydroxycyclohexyl)pyrimido[4,5-c]isoquinolin-6(5H)-one], 13500 nM. With `CCCCNc1ncc2c3ccc(CN4CCOCC4)cc3c(=O)n([C@H]3CC[C@H](O)CC3)c2n1` [Compound 2, trans-3-(Butylamino)-5-(4-hydroxycyclohexyl)-8-(morpholinomethyl)pyrimido [4,5-c]isoquinolin-6(5H)-one], the EC50 was 44.2 nM. With `O=c1c2cc(N3CCN(C4CC4)CC3)ccc2c2cnc(NCC3CC3)nc2n1[C@H]1CC[C@H](O)CC1` [Compound 110, trans-3-((Cyclopropylmethyl)amino)-8-(4-cyclopropylpiperazin-1-yl)-5-(4-hydroxycyclohexyl)pyrimido [4,5-c]isoquinolin-6(5H)-one] the figure was 483 nM. For the compound `CCCCNc1ncc2c3ccc(CN4CCN(C)CC4)cc3c(=O)n([C@H]3CC[C@H](C(=O)N(C)C)CC3)c2n1` [Compound 142, trans-4-(3-(Butylamino)-8-((4-methylpiperazin-1-yl)methyl)-6-oxopyrimido[4,5-c]isoquinolin-5(6H)-yl)-N,N-dimethylcyclohexane-1-carboxamide], the EC50 was determined as 115 nM. With `CCOC(=O)C1CCN(Cc2ccc3c(c2)c(=O)n([C@H]2CC[C@H](O)CC2)c2nc(NCC4CC4)ncc32)CC1` [Compound 50, trans-Ethyl 1-((3-((Cyclopropylmethyl)amino)-5-(4-hydroxycyclohexyl)-6-oxo-5,6-dihydropyrimido[4,5-c]isoquinolin-8-yl)methyl)piperidine-4-carboxylate] the figure was 25.9 nM; with `O=C(O)C1CCN(Cc2ccc3c(c2)c(=O)n([C@H]2CC[C@H](O)CC2)c2nc(NCC4CC4)ncc32)CC1` [Compound 200, trans-1-((3-((Cyclopropylmethyl)amino)-5-(4-hydroxycyclohexyl)-6-oxo-5,6-dihydropyrimido[4,5-c]isoquinolin-8-yl)methyl)piperidine-4-carboxylic acid], 11300 nM.
